Assay results: patent US20260315431A1, “NANOMATERIAL ENCAPSULATED BIOFILM INHIBITORS FOR DENTAL CARIES TREATMENT” (THE UAB RESEARCH FOUNDATION, priority 2023, published 2026)
pIC50: −log10 of the molar value. “Also recorded” adds a separate entry of the source. Read-outs that look alike come from different tables or passages of the source.

Assays:
[1] = tested on: S. mutans Gtfs; assay: Gtf inhibition determined by glucan quantification; format: biochemical, Streptococcus mutans; settings: role: inhibitor
From the text: The interspecies co-adherence between S. mutans and other microorganisms in the oral cavity is critical for biofilm formation and cariogenicity. Though the mechanisms of such adhesions and co-aggregations are not fully elucidated, it is believed that the extracellular polysaccharide (EPS) matrix of S. mutans has an important role in this process^49, 50. It is reported that glucans synthesized by Gtfs when incorporated into the tooth pellicle to provide enhanced binding sites for other microorganisms to form stable and persistent microcolonies, which provides mechanical stability to the EPS matrix^50, 51. Therefore, Gtf inhibition assays were performed to assess the ability of HA5 to inhibit the Gtfs and glucan production using a reported procedure and IC50 value was calculated^52.
HA5 is a polyhydroxy compound that contains a Michael acceptor functionality which raises concerns about non-specific and covalent binding.
Gtf inhibition determined by glucan quantification assays. Overnight cultures of S. mutans UA159 were centrifuged (6500 rpm, 4° C., 10 min) to remove cells. Supernatant was mixed with ethanol (1:1) and incubated at −80° C. for 1 h. The precipitated Gtfs were palleted using centrifugation and resuspended in chemically defined media (CDM) 10 μL of Gtfs suspended in CDM were assayed on Ibidi slides with varying concentrations of inhibitor, 1% sucrose, 1% DMSO and 1 μM Cascade blue dye in CDM. The slides were then incubated at 37° C. with 5% CO2 for 16 h after which, the wells of Ibidi slides were gently rinsed with 1×PBS and treated with 1×PBS for fluorescence microscopy imaging. The images obtained were processed in ImageJ to quantify glucans and graphed in GraphPad Prism.
Gtf inhibition assays were performed to assess the ability of HA6 to inhibit the Gtfs and glucan production using a reported procedure and IC50 value was calculated^[44, 45] Overnight cultures of S. mutans UA159 were centrifuged (6500 rpm, 4° C., 10 min) to remove the cells. Supernatant was mixed with ethanol (1:1) and incubated at −80° C. for 1 h. The precipitated Gtfs were palleted using centrifugation and resuspended in CDM (1 mL). 10 μL of Gtfs suspension in CDM was assayed on Ibidi slides with varying concentrations of PEHA5 or HA6, 1% sucrose, 1% DMSO and 1 μM Cascade blue dextran conjugated dye in CDM. The slides were then incubated at 37° C. with 5% CO2 for 16 h after which, the wells of Ibidi slides were gently rinsed with 1×PBS and imaged using fluorescence microscopy. The images obtained were processed in ImageJ to quantify glucans and graphed in GraphPad Prism 10.0.2.

[2] = molecular target: GtfB (Streptococcus mutans, UniProt P08987); assay: HA5/GtfB X-ray co-crystal structure; format: binding; settings: catalytic domain of GtfB
Sequence of GtfB (P08987 265-1143): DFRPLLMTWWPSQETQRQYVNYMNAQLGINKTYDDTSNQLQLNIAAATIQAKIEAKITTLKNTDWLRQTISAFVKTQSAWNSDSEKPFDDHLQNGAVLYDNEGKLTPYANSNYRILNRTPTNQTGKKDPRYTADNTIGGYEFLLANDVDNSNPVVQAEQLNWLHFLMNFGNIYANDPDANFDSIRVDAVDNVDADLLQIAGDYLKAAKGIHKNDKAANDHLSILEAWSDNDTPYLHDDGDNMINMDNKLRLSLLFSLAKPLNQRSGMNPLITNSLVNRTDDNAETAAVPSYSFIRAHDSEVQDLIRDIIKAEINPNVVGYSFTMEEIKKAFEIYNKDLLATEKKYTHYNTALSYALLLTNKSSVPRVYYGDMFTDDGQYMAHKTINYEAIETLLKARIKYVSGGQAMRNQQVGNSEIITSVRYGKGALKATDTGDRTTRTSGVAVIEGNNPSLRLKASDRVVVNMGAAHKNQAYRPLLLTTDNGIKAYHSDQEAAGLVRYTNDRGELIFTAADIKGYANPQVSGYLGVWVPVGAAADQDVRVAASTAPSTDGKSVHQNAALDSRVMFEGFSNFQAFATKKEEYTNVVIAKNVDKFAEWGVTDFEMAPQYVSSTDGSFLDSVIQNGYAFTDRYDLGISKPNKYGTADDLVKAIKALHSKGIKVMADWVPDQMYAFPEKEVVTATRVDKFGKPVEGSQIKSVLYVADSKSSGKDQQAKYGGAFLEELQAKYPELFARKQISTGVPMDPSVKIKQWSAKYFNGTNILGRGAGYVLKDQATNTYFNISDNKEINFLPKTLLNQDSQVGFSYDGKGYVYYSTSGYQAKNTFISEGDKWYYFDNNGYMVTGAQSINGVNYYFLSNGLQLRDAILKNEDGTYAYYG

[3] = tested on: S. mutans UA159; assay: Gnotobiotic rat model of dental caries (PEHA5 / HA5 study, Example 2); format: in vivo, gnotobiotic rats infected with S. mutans UA159; set-up: key to Buccal Mean Caries Scores (±SEM) E / Buccal Mean Caries Scores (±SEM) Ds / Buccal Mean Caries Scores (±SEM) Dm / Buccal Mean Caries Scores (±SEM) Dx / Sulcal Mean Caries Scores (± SEM) E / Sulcal Mean Caries Scores (± SEM) Ds / Sulcal Mean Caries Scores (± SEM) Dm / Sulcal Mean Caries Scores (± SEM) Dx / Proximal Mean Caries Scores (± SEM) E / Proximal Mean Caries Scores (± SEM) Ds: caries scored by the Keyes method; settings: 100 μM
From the text: (§1) The effect of PEHA5 on S. mutans colonization and virulence was compared side-by-side with HA5 using a well-established gnotobiotic rat model of dental caries^[50-54]. A (vehicle+infection only) group was included as a negative control. All rats from the experimental groups and from the control group were colonized with S. mutans UA159. […] Similar reductions in caries scores were also observed in sulcal caries scores and proximal caries scores (Table 5). We were unable to record the effect of the treatment on dentinal moderate (Dm) and dentinal extensive (Dx) scores in the proximal area due to the absence of dentinal lesions in the control and treated groups.
We used Fischer 344 rats that were bred and maintained in trexler isolators for this experiment. Male and female rat pups were removed from isolators at 20 days of age and randomly assigned into treatment groups of 5 rats/group in cages with filter tops. Rats were then infected with S. mutans UA159 strain by oral swabbing daily for four consecutive days with a fresh overnight culture of S. mutans UA159. Rats were provided with caries promoting Teklad Diet 305 containing […] (Harlan Laboratories, Inc., Indianapolis, IN) and sterile drinking water ad libitum. Oral swabs were taken 5 days post-infection and plated on Todd Hewitt (TH) agar plates and incubated at 37° C. in an environment of 5% CO2 in the air to confirm colonization. Rats were weighed at weaning and then weekly throughout the experiment. One-week post-infection, the molars of the rats were brushed twice daily for 4 weeks with the test compounds using camel-hair brushes. Four treatment groups used in this study were: 1) HA5 (100 μM); 2) […] (100 μM); 3) NaF (250 ppm); and 4) infected untreated rats. Drinking water was withheld for 60 min following each treatment with the compound. Animals were weighed at weaning and at the termination of the experiment. On day 60, the rats were sacrificed using CO2 followed by cervical dislocation or bilateral thoracotomy. The mandibles were surgically removed and cleaned of excess tissue to assess the level of bacteria present and the extent of caries formation. The right mandible from each rat was placed in a tube containing phosphate buffer (3 mL), placed on ice and sonicated (10 sec) to release bacteria from the molars. Each sample was serially diluted, plated on blood (BAP) and mitis-salivarius (MS) agar plates and incubated in an environment of 5% CO2 in air at 37° C. to quantify the level of total bacteria and S. mutans present in the plaque. The right and left mandibles from each rat were then placed in 95% ethanol for 24 h. The mandibles will be cleaned and stained overnight with murexide solution. After drying, the mandibles were sectioned and scored for caries activity using the Keyes method Caries scores were recorded for the buccal, sulcal and proximal molar surfaces individually so that differences among the surfaces can be distinguished. Statistical significance in the mean caries scores, colony-forming units (CFU)/mandible and body weights between groups of rats were determined by one-way analysis of variance (ANOVA) with the Tukey-Kramer multiple comparison test using the InStat program (GraphPad Prism 10.0.2.). When determining the statistical significance between the two groups, an unpaired t-test was applied. Differences between groups were considered significant at a P-value<0.05.

[4] = Body weight of animals, PEHA5 / HA5 study; format: in vivo, gnotobiotic rats; settings: 100 μM
From the text: as §1
We used Fischer 344 rats that were bred and maintained in trexler isolators for this experiment. Male and female rat pups were removed from isolators at 20 days of age and randomly assigned into treatment groups of 5 rats/group in cages with filter tops. […] Each sample was serially diluted, plated on blood (BAP) and mitis-salivarius (MS) agar plates and incubated in an environment of 5% CO2 in air at 37° C. to quantify the level of total bacteria and S. mutans present in the plaque. […] After drying, the mandibles were sectioned and scored for caries activity using the Keyes method Caries scores were recorded for the buccal, sulcal and proximal molar surfaces individually so that differences among the surfaces can be distinguished. […]

## O=C1/C(=C/c2cc(O)c(O)cc2O)Oc2ccccc21 [HA5, 2-[(2′,4′,5′-Trihydroxyphenyl)methylidene]-2,3-dihydro-1-benzofuran-3-one]
[1]; 1% sucrose, 1% DMSO, no BME or Triton-X-100, read-out: Gtf inhibition (glucan production) IC50
  pIC50: 4.98
[1]; no BME, unit M, read-out: Gtf inhibition (glucan production) IC50
  pIC50: 4.98
[1]; with beta-mercaptoethanol 1 mM, read-out: Gtf inhibition IC50 in the presence of BME
  pIC50: 5.11
[1]; with detergent Triton-X-100, read-out: Gtf inhibition IC50 in the presence of Triton-X-100
  pIC50: 5.29
[2]
  binding in HA5/GtfB co-crystal structure: binding in the catalytic site of GtfB; also recorded: does not show any covalent bond
[3]; 4-week treatment
  effect on bacterial colonization: did not affect bacterial colonization significantly
  reduction in caries scores: significant reductions in buccal caries scores
[3]; Blood agar plate
  CFU/mL BAP: 5.2 ± 1.4 CFU/mL (×10^5)
[3]; Mitis-Salivarius agar
  CFU/mL MS: 5.5 ± 2.6 CFU/mL (×10^5)
[3]; dentinal extensive, 4 weeks
  Buccal Mean Caries Scores (±SEM) Dx: 1.4 ± 0.4
  Sulcal Mean Caries Scores (± SEM) Dx: 4.8 ± 0.9
[3]; dentinal moderate, 4 weeks
  Buccal Mean Caries Scores (±SEM) Dm: 2.8 ± 0.5
  Sulcal Mean Caries Scores (± SEM) Dm: 9.4 ± 0.5
[3]; dentinal slight, 4 weeks
  Buccal Mean Caries Scores (±SEM) Ds: 6.4 ± 1.0
  Proximal Mean Caries Scores (± SEM) Ds: 3.4 ± 0.6
  Sulcal Mean Caries Scores (± SEM) Ds: 15.0 ± 0.9
[3]; enamel, 4 weeks
  Buccal Mean Caries Scores (±SEM) E: 9.0 ± 0.6
  Proximal Mean Caries Scores (± SEM) E: 5.2 ± 0.5
  Sulcal Mean Caries Scores (± SEM) E: 20.6 ± 0.8
[4]
  Weight: 145 ± 14 g
[4]; 4-week treatment
  weight loss: did not experience any weight loss
